Measured values from ChEMBL document CHEMBL4602710 (ACS Med Chem Lett, 2020).
Converted amounts (≈) assume the structure as drawn.

Assays:
[1] = Solubility of compound at pH 7.4; assay type: physicochemical; settings: buffer
[2] = target: T1, Tyrosine-protein kinase SYK (Homo sapiens, UniProt P43405); experiment: Inhibition of SYK in human Ramos cells assessed as reduction in antihuman IgM F(ab)2-induced phosphorylation of BLNK at Y96 residue preincubated for 1 hr followed by antihuman IgM F(ab)2 stimulation for 5 mins by MSD high bind plate assay; assay type: cell-based
[3] = target: T1, Tyrosine-protein kinase SYK; experiment: Inhibition of SYK (unknown origin) using XL665-labeled peptide as substrate in presence of ATP measured after 30 mins by TR-FRET assay
[4] = Clearance in human liver microsomes; assay type: ADME, Microsome
[5] = Distribution coefficient, logD of compound; assay type: physicochemical; settings: octanol/water
[6] = target: T1, Tyrosine-protein kinase SYK; experiment: Inhibition of SYK in human whole blood assessed as reduction in anti-FCepsilonR1 mAb-induced basophil activation by measuring decrease in CD63 surface expression incubated for 60 mins followed by anti-FCepsilonR1 mAb stimulation for 20 mins by flow cytometry analysis; assay type: tissue-based
[7] = Solubility of compound at pH 2; assay type: physicochemical; settings: buffer
[8] = Oral bioavailability in rat at 5 mg/kg; assay type: ADME, organism-based; settings: in vivo
[9] = Efflux ratio of apparent permeability of compound in human Caco2 cells; assay type: ADME, cell-based; settings: Caco-2
[10] = Apparent permeability of compound in human Caco2 cells; assay type: ADME, cell-based; settings: Caco-2

| SMILES | solubility [1] | EC50 [2] | IC50 [3] | CLhep predicted [4] | logD [5] | EC50 [6] | solubility [7] | bioavailability [8] | efflux ratio [9] | Papp [10] |
| --- | --- | --- | --- | --- | --- | --- | --- | --- | --- | --- |
| c1cn2cc(-c3ccc4cn[nH]c4c3)nc(Nc3ccc(N4CC5(CCOCC5)C4)cc3)c2n1 | 3 µM (≈ 1.35 µg/mL) | 82 nM | 9 nM | 4 mL/min/kg | 1.9 to 2.7 | 2180 nM | 77 µM (≈ 34.8 µg/mL) | – | – | – |
| c1cn2cc(-c3ccc4cn[nH]c4c3)nc(Nc3ccc(N4CC5(COC5)C4)cc3)c2n1 | < 1 µM | 63 nM | 5 nM | 11 mL/min/kg | 1.9 to 2.7 | 1500 nM | 88 µM (≈ 37.3 µg/mL) | – | – | – |
| CN(C)C[C@@H]1CN(c2ccc(Nc3nc(-c4ccc5cn[nH]c5c4)cn4ccnc34)cc2)CCO1 | 78 µM (≈ 36.5 µg/mL) | 109 nM | 0.9 nM | 3.83 mL/min/kg | 1.9 to 2.7 | 231 nM | 90 µM (≈ 42.2 µg/mL) | 2% | 29 | 0.5 ×10⁻⁶ cm/s |
| CCN1CCN(c2ccc(Nc3nc(-c4ccc5cn[nH]c5c4)cn4ccnc34)cc2)CC1 | 10 µM (≈ 4.39 µg/mL) | 36 nM | 0.8 nM | 3.33 mL/min/kg | 1.9 to 2.7 | 456 nM | > 100 µM | – | – | – |
| COCCN1CCN(c2ccc(Nc3nc(-c4ccc5cn[nH]c5c4)cn4ccnc34)cc2)CC1 | < 1 µM | 23 nM | 0.9 nM | 8.67 mL/min/kg | 1.9 to 2.7 | 267 nM | > 100 µM | – | – | – |
| O=S1(=O)CCN(c2ccc(Nc3nc(-c4ccc5cn[nH]c5c4)cn4ccnc34)cc2)CC1 | 3 µM (≈ 1.38 µg/mL) | 33 nM | 19.5 nM | 8.17 mL/min/kg | 1.9 to 2.7 | 1190 nM | 26 µM (≈ 11.9 µg/mL) | – | – | – |
| Nc1cncc(-c2cn3ccnc3c(Nc3ccc(N4CCN(C5COC5)CC4)cc3)n2)c1 | 87 µM (≈ 38.5 µg/mL) | 162 nM | 28.6 nM | 4.33 mL/min/kg | – | 196 nM | 98 µM (≈ 43.4 µg/mL) | – | – | – |
| c1cn2cc(-c3cnc4cc[nH]c4c3)nc(Nc3ccc(N4CCN(C5COC5)CC4)cc3)c2n1 | 1 µM (≈ 0.467 µg/mL) | 46 nM | 6.9 nM | 3.83 mL/min/kg | – | 78 nM | > 100 µM | – | – | – |
| c1cn2cc(-c3cnc4cn[nH]c4c3)nc(Nc3ccc(N4CCN(C5COC5)CC4)cc3)c2n1 | 1 µM (≈ 0.468 µg/mL) | 13 nM | 2.8 nM | 3.17 mL/min/kg | – | 47 nM | > 100 µM | – | – | – |
| c1cn2cc(-c3ccc4cn[nH]c4c3)nc(Nc3ccc(N4[C@H]5COC[C@@H]4COC5)cc3)c2n1 | < 1 µM | 33 nM | 13.7 nM | 9.83 mL/min/kg | 1.9 to 2.7 | 133 nM | < 1 µM | – | – | – |
| c1cn2cc(-c3ccc4c(c3)NCCO4)nc(Nc3ccc(N4CCN(C5COC5)CC4)cc3)c2n1 | 29 µM (≈ 14 µg/mL) | 46 nM | 21.5 nM | 15.2 mL/min/kg | – | 1230 nM | > 100 µM | – | – | – |
| c1cn2cc(-c3ccc4nc[nH]c4n3)nc(Nc3ccc(N4CCN(C5COC5)CC4)cc3)c2n1 | 90 µM (≈ 42.1 µg/mL) | 66 nM | 31.9 nM | 2.83 mL/min/kg | – | 89 nM | > 100 µM | – | – | – |
| c1cn2cc(-c3cnc4cc[nH]c4n3)nc(Nc3ccc(N4CCN(C5COC5)CC4)cc3)c2n1 | 5 µM (≈ 2.34 µg/mL) | 11 nM | 1.7 nM | 3.33 mL/min/kg | – | 48 nM | > 100 µM | – | – | – |
| c1cn2cc(-c3ccc4cn[nH]c4c3)nc(Nc3ccc(N4CCN(C5COC5)CC4)cc3)c2n1 | < 1 µM | 53 nM | 9.2 nM | 3 mL/min/kg | 1.9 to 2.7 | 385 nM | > 100 µM | 42% | 2.9 | 5.5 ×10⁻⁶ cm/s |
| c1cn2cc(-c3cnc4c(c3)NCCO4)nc(Nc3ccc(N4CCN(C5COC5)CC4)cc3)c2n1 | > 100 µM | 46.8 nM | 8.4 nM | 4.17 mL/min/kg | – | 89 nM | > 100 µM | 38% | – | – |
| c1cn2cc(-c3ccc4c(n3)NCCO4)nc(Nc3ccc(N4CCN(C5COC5)CC4)cc3)c2n1 | 2 µM (≈ 0.969 µg/mL) | 107 nM | 44.1 nM | 4.33 mL/min/kg | – | 234 nM | 99 µM (≈ 48 µg/mL) | – | – | – |
| c1cn2cc(-c3ccc4cn[nH]c4c3)nc(Nc3ccc(N4C[C@H]5CC[C@@H](C4)O5)cc3)c2n1 | < 1 µM | 162 nM | 5.3 nM | 9.5 mL/min/kg | 1.9 to 2.7 | 2330 nM | 24 µM (≈ 10.5 µg/mL) | – | – | – |
| OC1CN(c2ccc(Nc3nc(-c4ccc5cn[nH]c5c4)cn4ccnc34)cc2)C1 | 4 µM (≈ 1.59 µg/mL) | 57 nM | 11.3 nM | 12.5 mL/min/kg | 1.9 to 2.7 | 723 nM | 78 µM (≈ 31 µg/mL) | – | – | – |

| SMILES | solubility [1] | EC50 [2] | IC50 [3] | CLhep predicted [4] | logD [5] | EC50 [6] | solubility [7] | bioavailability [8] | efflux ratio [9] | Papp [10] |
| --- | --- | --- | --- | --- | --- | --- | --- | --- | --- | --- |
| c1cn2cc(-c3cnc4c(n3)NCCO4)nc(Nc3ccc(N4CCN(C5COC5)CC4)cc3)c2n1 | 99 µM (≈ 48.1 µg/mL) | 86 nM | 7.8 nM | < 1.83 mL/min/kg | – | 79 nM | > 100 µM | 21% | 3 | 11 ×10⁻⁶ cm/s |
| Nc1cccc(-c2cn3ccnc3c(Nc3ccc(N4CCN(C5COC5)CC4)cc3)n2)n1 | 52 µM (≈ 23 µg/mL) | 268 nM | 44.3 nM | 2.17 mL/min/kg | – | 308 nM | > 100 µM | – | – | – |
| c1cn2cc(-c3cnc4nc[nH]c4n3)nc(Nc3ccc(N4CCN(C5COC5)CC4)cc3)c2n1 | 3 µM (≈ 1.41 µg/mL) | 192 nM | 11.5 nM | 2.83 mL/min/kg | – | – | > 100 µM | – | – | – |
| C[C@@H]1CN(c2ccc(Nc3nc(-c4ccc5cn[nH]c5c4)cn4ccnc34)cc2)C[C@H](C)O1 | < 1 µM | 45 nM | 4.9 nM | 2.5 mL/min/kg | 1.9 to 2.7 | 885 nM | 86 µM (≈ 37.8 µg/mL) | – | – | – |
| c1cn2cc(-c3ccc4cc[nH]c4c3)nc(Nc3ccc(N4CCN(C5COC5)CC4)cc3)c2n1 | 15 µM (≈ 6.98 µg/mL) | 26 nM | 15.7 nM | 5.17 mL/min/kg | – | 381 nM | > 100 µM | – | – | – |
| Nc1cccc(-c2cn3ccnc3c(Nc3ccc(N4CCN(C5COC5)CC4)cc3)n2)c1 | 84 µM (≈ 37.1 µg/mL) | 220 nM | 54.6 nM | 3.83 mL/min/kg | – | 939 nM | > 100 µM | – | – | – |
| OC1CCN(c2ccc(Nc3nc(-c4ccc5cn[nH]c5c4)cn4ccnc34)cc2)CC1 | 3 µM (≈ 1.28 µg/mL) | 33 nM | 1.2 nM | 4.67 mL/min/kg | 1.9 to 2.7 | 591 nM | 84 µM (≈ 35.7 µg/mL) | – | – | – |
| c1cn2cc(-c3ccc4cn[nH]c4c3)nc(Nc3ccc(N4C[C@@H]5C[C@H]4CO5)cc3)c2n1 | < 1 µM | 113 nM | 5 nM | 11 mL/min/kg | 1.9 to 2.7 | 1500 nM | 79 µM (≈ 33.5 µg/mL) | – | – | – |
| c1cn2cc(-c3cnc4cn[nH]c4n3)nc(Nc3ccc(N4CCN(C5COC5)CC4)cc3)c2n1 | 2 µM (≈ 0.937 µg/mL) | 37 nM | 3.2 nM | 2.33 mL/min/kg | – | 154 nM | > 100 µM | – | – | – |
| c1cn2cc(-c3cnc4nc[nH]c4c3)nc(Nc3ccc(N4CCN(C5COC5)CC4)cc3)c2n1 | < 1 µM | 286 nM | 13.4 nM | 3 mL/min/kg | – | 309 nM | > 100 µM | – | 5.8 | 2.7 ×10⁻⁶ cm/s |
| c1cn2cc(-c3ccc4cn[nH]c4n3)nc(Nc3ccc(N4CCN(C5COC5)CC4)cc3)c2n1 | 5 µM (≈ 2.34 µg/mL) | 23 nM | 6.7 nM | 4.67 mL/min/kg | – | 86 nM | > 100 µM | – | – | – |
| c1cn2cc(-c3ccc4cc[nH]c4n3)nc(Nc3ccc(N4CCN(C5COC5)CC4)cc3)c2n1 | < 1 µM | 18 nM | 11.3 nM | 6.33 mL/min/kg | – | 128 nM | 99 µM (≈ 46.2 µg/mL) | – | – | – |
| c1cn2cc(-c3ccc4cn[nH]c4c3)nc(Nc3ccc(N4CCOCC4)cc3)c2n1 [ENTOSPLETINIB] | 6 µM (≈ 2.47 µg/mL) | – | – | 5.17 mL/min/kg | 2.5 | – | 13 µM (≈ 5.35 µg/mL) | – | – | – |
| OC[C@H]1CN(c2ccc(Nc3nc(-c4ccc5cn[nH]c5c4)cn4ccnc34)cc2)CCO1 | 1.2 µM (≈ 0.53 µg/mL) | 29 nM | 1.1 nM | 4.33 mL/min/kg | 1.9 to 2.7 | 501 nM | 87 µM (≈ 38.4 µg/mL) | – | – | – |
| c1cn2cc(-c3ccc4nc[nH]c4c3)nc(Nc3ccc(N4CCN(C5COC5)CC4)cc3)c2n1 | 49 µM (≈ 22.9 µg/mL) | 47 nM | 17.3 nM | < 1.83 mL/min/kg | – | 90 nM | > 100 µM | – | 38 | 0.4 ×10⁻⁶ cm/s |
| c1cn2cc(-c3ccc4cn[nH]c4c3)nc(Nc3ccc(N4CC5COCC5C4)cc3)c2n1 (configuration not stated) | < 1 µM | 187 nM | 9.6 nM | 4.5 mL/min/kg | 1.9 to 2.7 | 2210 nM | 24 µM (≈ 10.5 µg/mL) | – | – | – |
| c1cn2cc(-c3ccc4cn[nH]c4c3)nc(Nc3ccc(N4CC5CC(C4)O5)cc3)c2n1 | 2 µM (≈ 0.847 µg/mL) | 68 nM | 61.6 nM | 5.33 mL/min/kg | 1.9 to 2.7 | 824 nM | 25 µM (≈ 10.6 µg/mL) | – | – | – |
